Like-named read-outs stand apart in the source and are kept apart here.
Legend:
Assay in all cases: DSF 100 kinase selectivity screen;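 further: compound tested at 20 µM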
Type in all cases: binding
[1] = molecular target: T1, ~100 representative kinases (Homo sapiens, UniProt O14936); details: Protein CASK; average of three replicates
T1 construct: Recombinant protein kinase domains with a concentration of 2 μM
T1 sequence (O14936 1-926): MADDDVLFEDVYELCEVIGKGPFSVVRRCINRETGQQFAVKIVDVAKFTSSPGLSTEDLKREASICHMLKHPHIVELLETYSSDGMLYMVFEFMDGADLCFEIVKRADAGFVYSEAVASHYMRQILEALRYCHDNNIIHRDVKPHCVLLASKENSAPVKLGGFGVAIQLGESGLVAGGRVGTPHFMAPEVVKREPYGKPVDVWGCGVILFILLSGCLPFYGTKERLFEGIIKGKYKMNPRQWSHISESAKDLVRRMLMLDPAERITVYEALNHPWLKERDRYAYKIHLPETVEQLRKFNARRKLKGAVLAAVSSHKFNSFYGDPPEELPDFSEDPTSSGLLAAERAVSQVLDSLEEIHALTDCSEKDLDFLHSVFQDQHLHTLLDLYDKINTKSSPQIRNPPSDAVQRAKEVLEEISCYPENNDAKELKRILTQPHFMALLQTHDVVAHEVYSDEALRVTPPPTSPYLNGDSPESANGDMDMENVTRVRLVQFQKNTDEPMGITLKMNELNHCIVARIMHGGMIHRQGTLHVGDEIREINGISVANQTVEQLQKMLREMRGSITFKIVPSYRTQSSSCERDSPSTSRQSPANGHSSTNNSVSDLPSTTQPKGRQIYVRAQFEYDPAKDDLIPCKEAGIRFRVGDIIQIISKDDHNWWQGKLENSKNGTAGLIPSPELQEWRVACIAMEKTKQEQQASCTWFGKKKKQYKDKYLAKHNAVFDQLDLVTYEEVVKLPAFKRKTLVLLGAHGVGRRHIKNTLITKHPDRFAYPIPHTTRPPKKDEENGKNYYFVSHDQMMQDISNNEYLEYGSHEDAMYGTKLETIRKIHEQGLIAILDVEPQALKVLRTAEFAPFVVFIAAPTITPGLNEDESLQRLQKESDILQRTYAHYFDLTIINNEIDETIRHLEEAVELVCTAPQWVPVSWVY
Outline: (§1)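 Each kinase domain, at 2 μM, is mixed with 20 μM test compound and SYPRO Orange in Hepes (20 mM, pH 7.5) with 500 mM NaCl. Temperature is then raised at 3°C/min and fluorescence-monitored unfolding yields the melting temperature change, ΔTm in degrees Celsius.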

[2] = molecular target: T2, ~100 representative kinases (Homo sapiens, UniProt P07332); details: protein FESA; average of three replicates
T2 construct: Recombinant protein kinase domains with a concentration of 2 μM
Outline: as §1

[3] = molecular target: T3, ~100 representative kinases (Homo sapiens, UniProt Q13873); details: Protein BMPR2; average of three replicates
T3 construct: Recombinant protein kinase domains with a concentration of 2 μM
T3 sequence (Q13873 27-1038): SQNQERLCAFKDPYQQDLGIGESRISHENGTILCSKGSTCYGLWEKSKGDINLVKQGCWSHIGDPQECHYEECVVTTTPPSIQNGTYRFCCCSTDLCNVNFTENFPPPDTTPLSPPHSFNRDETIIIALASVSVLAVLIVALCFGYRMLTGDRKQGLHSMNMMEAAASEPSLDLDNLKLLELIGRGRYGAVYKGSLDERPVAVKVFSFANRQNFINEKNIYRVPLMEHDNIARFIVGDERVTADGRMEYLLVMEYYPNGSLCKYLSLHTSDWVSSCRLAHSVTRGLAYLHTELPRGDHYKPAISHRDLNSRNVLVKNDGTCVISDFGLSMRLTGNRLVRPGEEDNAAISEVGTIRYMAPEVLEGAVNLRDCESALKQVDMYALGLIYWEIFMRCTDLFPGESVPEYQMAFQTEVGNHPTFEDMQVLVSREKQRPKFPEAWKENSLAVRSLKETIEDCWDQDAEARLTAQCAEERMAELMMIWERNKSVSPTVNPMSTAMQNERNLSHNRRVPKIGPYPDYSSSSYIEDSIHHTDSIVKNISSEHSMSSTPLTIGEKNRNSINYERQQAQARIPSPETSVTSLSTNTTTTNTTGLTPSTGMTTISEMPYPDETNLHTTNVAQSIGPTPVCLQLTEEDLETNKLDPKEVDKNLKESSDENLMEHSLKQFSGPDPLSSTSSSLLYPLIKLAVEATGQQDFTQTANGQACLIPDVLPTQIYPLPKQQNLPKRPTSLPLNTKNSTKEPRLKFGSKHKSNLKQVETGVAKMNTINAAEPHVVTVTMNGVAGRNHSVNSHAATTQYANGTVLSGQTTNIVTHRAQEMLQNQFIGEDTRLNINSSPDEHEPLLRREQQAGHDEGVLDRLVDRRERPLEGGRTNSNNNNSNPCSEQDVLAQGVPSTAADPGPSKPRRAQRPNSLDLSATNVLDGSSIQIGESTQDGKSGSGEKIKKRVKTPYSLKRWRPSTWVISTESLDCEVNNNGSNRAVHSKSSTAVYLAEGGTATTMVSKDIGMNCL
Outline: as §1

[4] = molecular target: T4, ~100 representative kinases (Homo sapiens, UniProt Q00536)
T4 construct: Recombinant protein kinase domains with a concentration of 2 μM
Outline: as §1

[5] = molecular target: T5, ~100 representative kinases (Homo sapiens, UniProt Q99640); details: protein PKMYT1; average of three replicates
T5 construct: Recombinant protein kinase domains with a concentration of 2 μM
T5 sequence (Q99640 1-499): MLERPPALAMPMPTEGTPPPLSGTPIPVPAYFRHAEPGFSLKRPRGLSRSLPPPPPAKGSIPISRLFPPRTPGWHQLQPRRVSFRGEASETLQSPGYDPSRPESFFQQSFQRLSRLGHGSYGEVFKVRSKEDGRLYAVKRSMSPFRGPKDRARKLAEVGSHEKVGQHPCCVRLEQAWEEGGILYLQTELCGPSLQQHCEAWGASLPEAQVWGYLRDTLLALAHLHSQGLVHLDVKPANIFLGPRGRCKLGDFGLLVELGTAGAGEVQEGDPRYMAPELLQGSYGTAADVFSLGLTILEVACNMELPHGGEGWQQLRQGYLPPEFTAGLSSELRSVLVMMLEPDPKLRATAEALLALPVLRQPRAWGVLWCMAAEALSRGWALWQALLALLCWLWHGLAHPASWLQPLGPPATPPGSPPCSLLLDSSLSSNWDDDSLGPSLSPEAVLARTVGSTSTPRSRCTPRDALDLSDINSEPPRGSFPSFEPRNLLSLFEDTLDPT
Outline: as §1

[6] = molecular target: T6, ~100 representative kinases (Homo sapiens, UniProt P45984); details: protein MAPK9; average of three replicates
T6 construct: Recombinant protein kinase domains with a concentration of 2 μM
Outline: as §1

[7] = protein PCTK1, average of three replicates

T2 sequence (P07332 whole entry, the tested form may be a part): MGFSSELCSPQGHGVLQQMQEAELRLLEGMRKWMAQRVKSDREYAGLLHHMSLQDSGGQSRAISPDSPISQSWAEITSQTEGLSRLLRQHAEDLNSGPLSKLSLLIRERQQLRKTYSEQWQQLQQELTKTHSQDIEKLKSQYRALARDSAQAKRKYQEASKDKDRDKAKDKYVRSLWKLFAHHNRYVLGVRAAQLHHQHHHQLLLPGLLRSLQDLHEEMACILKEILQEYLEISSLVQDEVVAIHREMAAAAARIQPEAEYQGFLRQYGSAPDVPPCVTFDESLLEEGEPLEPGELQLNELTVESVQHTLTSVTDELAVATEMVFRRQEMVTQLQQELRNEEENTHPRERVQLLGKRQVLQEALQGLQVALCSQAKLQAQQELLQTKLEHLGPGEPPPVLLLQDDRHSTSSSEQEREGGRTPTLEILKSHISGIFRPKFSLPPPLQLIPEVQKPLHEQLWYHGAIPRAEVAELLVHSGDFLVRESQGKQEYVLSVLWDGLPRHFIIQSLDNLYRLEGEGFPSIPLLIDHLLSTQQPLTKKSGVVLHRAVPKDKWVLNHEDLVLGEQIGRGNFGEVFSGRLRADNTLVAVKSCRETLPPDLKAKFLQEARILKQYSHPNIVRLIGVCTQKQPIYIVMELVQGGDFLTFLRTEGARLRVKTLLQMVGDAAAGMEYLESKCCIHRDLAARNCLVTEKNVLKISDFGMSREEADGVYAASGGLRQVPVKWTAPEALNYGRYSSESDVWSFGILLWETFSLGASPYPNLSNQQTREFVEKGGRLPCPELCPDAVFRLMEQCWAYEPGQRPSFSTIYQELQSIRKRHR
T4 sequence (Q00536 whole entry, the tested form may be a part): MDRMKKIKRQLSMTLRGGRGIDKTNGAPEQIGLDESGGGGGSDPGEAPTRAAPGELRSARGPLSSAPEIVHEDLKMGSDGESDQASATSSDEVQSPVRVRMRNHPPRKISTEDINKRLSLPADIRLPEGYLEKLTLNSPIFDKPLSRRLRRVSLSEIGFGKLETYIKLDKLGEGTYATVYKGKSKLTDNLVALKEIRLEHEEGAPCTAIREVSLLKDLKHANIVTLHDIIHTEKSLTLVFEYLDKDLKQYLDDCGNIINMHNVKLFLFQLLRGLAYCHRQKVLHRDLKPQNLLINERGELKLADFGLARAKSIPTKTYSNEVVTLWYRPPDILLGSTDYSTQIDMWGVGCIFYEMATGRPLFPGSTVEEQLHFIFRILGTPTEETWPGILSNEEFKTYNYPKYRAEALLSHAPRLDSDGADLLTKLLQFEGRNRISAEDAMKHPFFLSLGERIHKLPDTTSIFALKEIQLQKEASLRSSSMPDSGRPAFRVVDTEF
T6 sequence (P45984 whole entry, the tested form may be a part): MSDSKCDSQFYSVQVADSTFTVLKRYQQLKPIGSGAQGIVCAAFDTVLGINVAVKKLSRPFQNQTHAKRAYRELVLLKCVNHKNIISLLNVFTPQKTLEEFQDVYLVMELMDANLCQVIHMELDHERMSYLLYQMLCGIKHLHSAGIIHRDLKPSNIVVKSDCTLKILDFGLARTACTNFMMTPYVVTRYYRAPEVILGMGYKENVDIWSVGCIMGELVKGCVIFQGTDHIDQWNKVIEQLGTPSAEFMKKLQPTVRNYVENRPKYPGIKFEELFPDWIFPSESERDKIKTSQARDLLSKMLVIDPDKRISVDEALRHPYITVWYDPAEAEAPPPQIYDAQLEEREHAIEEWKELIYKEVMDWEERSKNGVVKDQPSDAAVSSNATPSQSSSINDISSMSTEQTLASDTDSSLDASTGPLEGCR

Row | Compound | dTm [1] [K] | dTm [2] [K] | dTm [3] [K] | dTm [4, 7] [K] | dTm [5] [K] | dTm [6] [K] | dTm [4] [K]
1 | O=C(Nc1cccc(-c2c[nH]c3ncnc(N4CCOCC4)c23)c1)C1(C(=O)Nc2ccc(F)c(Cl)c2)CC1 [Compound 18] | 0.56 | 6.93 | 1.13 | 7.39 | -1.54 | 5.44 | 
2 | O=C(Nc1cccc(-c2c[nH]c3ncnc(N4CCOCC4)c23)c1)C1(C(=O)Nc2ccc(F)c(Br)c2)CC1 [Compound 19] | 1.26 | 6.49 | -0.62 | 4.12 | -0.61 | 5.82 | 
3 | Cc1cc(NC(=O)C2(C(=O)Nc3cccc(-c4c[nH]c5ncnc(N6CCOCC6)c45)c3)CC2)ccc1F [Compound 20] | 0.17 | 7.60 | 1.32 | 8.82 | 0.44 | 6.61 | 
4 | COc1cc(NC(=O)C2(C(=O)Nc3cccc(-c4c[nH]c5ncnc(N6CCOCC6)c45)c3)CC2)ccc1F [Compound 21] | 0.09 | 6.34 | 0.78 | 6.37 | -0.64 | 3.60 | 
5 | CC(C)(C)c1cccc(NC(=O)C2(C(=O)Nc3cccc(-c4c[nH]c5ncnc(N6CCOCC6)c45)c3)CC2)c1 [Compound 22] | 1.08 | 7.02 | 0.10 | 4.90 | -2.18 | 1.21 | 
6 | O=C(Nc1cccc(-c2c[nH]c3ncnc(N4CCOCC4)c23)c1)C1(C(=O)Nc2ccc(F)cc2F)CC1 [Compound 23] | 0.06 | 4.70 | 0.82 | 4.13 | -0.59 | 2.02 | 
7 | Cc1cc(F)ccc1NC(=O)C1(C(=O)Nc2cccc(-c3c[nH]c4ncnc(N5CCOCC5)c34)c2)CC1 [Compound 24] | -0.0179 | 4.33 | 0.57 | 3.77 | -0.26 | 2.21 | 
8 | O=C(Nc1cccc(-c2c[nH]c3ncnc(N4CCOCC4)c23)c1)C1(C(=O)Nc2cc(Br)c(F)cc2F)CC1 [Compound 25] | 1.03 | 3.29 | 0.20 | -0.86 | -1.04 | 4.88 | 
9 | O=C(Nc1cccc(-c2c[nH]c3ncnc(N4CCOCC4)c23)c1)C1(C(=O)Nc2ccc(F)c(Br)c2F)CC1 [Compound 26] | 1.04 | 3.48 | 0.05 | -1.22 | -0.69 | 4.90 | 
10 | O=C(Nc1cc(F)cc(Br)c1)C1(C(=O)Nc2cccc(-c3c[nH]c4ncnc(N5CCOCC5)c34)c2)CC1 [Compound 27] | 1.15 | 3.58 | 0.25 | 0.18 | -2.72 | 4.80 | 
11 | CC(C)(C)c1cc(NC(=O)Nc2cccc(-c3c[nH]c4ncnc(N5CCOCC5)c34)c2)n(-c2ccc3ncccc3c2)n1 [Compound 28] | 0.70 | 9.54 | 0.69 | 15.55 | 0.83 | 6.00 | 
12 | Cc1ccc(-n2nc(C(C)(C)C)cc2NC(=O)Nc2cccc(-c3c[nH]c4ncnc(N5CCOCC5)c34)c2)cc1 [Compound 29] | 0.14 | 0.00 | 0.97 | 16.54 | -0.41 | -1.39 | 
13 | Cc1ccc(-n2nc(C(C)(C)C)cc2NC(=O)Nc2cccc(-c3c[nH]c4nc(Cl)nc(N5CCOCC5)c34)c2)cc1 [Compound 30] | -0.47 | 3.55 | 0.19 | 3.37 | -0.62 | 3.39 | 
14 | CC(=O)N1CCN(c2nc(Cl)nc3[nH]cc(-c4cccc(NC(=O)Nc5cc(C(C)(C)C)nn5-c5ccc(C)cc5)c4)c23)CC1 [Compound 31] | -2.83 | 0.00 | 0.38 | 5.50 | -0.30 | 5.47 | 
15 | CCSc1nc(NC)c2c(-c3cccc(NC(=O)Nc4cc(C(C)(C)C)nn4-c4ccc(C)cc4)c3)c[nH]c2n1 [Compound 32] | -0.26 | 3.81 | 0.45 | 3.77 | 0.22 | 11.55 | 
16 | COc1cc(C(=O)N2CCOCC2)c(F)cc1Nc1nc(N(C)C)c2c(Cl)c[nH]c2n1 [Compound 36] | -0.72 | 2.67 | 0.63 | 0.43 | -0.59 | 2.71 | 
17 | COc1cc(S(C)(=O)=O)ccc1Nc1nc(N(C)C)c2c(Cl)c[nH]c2n1 [Compound 37] | -0.21 | 2.13 | -0.0179 | -0.043 | -0.22 | 0.96 | 
18 | COc1cc2c(Oc3ccc(NC(=O)C4(C(=O)Nc5ccc(F)cc5)CC4)cc3F)ccnc2cc1OCCCN1CCOCC1 [Foretinib, reference compound] | 0.53 | 6.46 | 0.59 |  | 0.92 | 2.84 | 4.52
19 | CCNc1nc(Nc2cc(F)c(C(=O)N3CCOCC3)cc2OC)ncc1C(F)(F)F [GNE-7915] | 0.33 | 2.48 | 1.37 | 0.61 | -0.40 | 0.58 | 

Source: paper PMC12136037, “Type II kinase inhibitors that target Parkinson’s disease–associated LRRK2” (Science Advances, 2025)
